Assay results taken from patent US20250320213A1, “Nitrogen-Containing Heterocyclic Compounds” (Pfizer Inc., priority 2024, published 2025).
Read-outs that look alike come from different tables or passages of the source.

What was measured:
[1] = tested on: CCL17 secretion in peripheral human whole blood; assay: Human Whole Blood (HWB) CCL17 TR-FRET Assay (IL-13 stimulated CCL17 secretion); assay type: cell-based; conditions: Homo sapiens, 48 h
Protocol: The IC50 (half-maximal concentration required for inhibition) of compounds for the inhibition of CCL17 secretion in peripheral human whole blood, stimulated through the IL-13-IL-13 receptor/IL-4 receptor pathway was evaluated with a TR-FRET sandwich ELISA CCL17 (TARC) Assay Kit (Bioauxilium).
Test compounds (solubilized and serially diluted in DMSO, in an 11 point, 3-fold dilution series in duplicate) were spotted, 80 nL per well, into a 384 well v-bottom polypropylene plate. Human whole blood was collected from a peripheral vein, 714 units of sodium heparin was added for every 50 mL of blood collected. Sixty μL per well of blood was added to the compound plate. The blood plate was incubated for two hours at 37° C. After two hours, CCL17 production was stimulated with the addition of 20 μL per well of IL13 (R&D Systems) in HBSS with calcium and magnesium, with a final concentration of 10 ng/mL IL13. The plate containing blood, compound, and IL-13 was incubated at 37° C. for 48 hours, to allow for CCL17 production. After 48 hours, the plate was centrifuged at 1,500 revolutions per minute (RPM) for 7 minutes, with no braking. The CCL17 TR-FRET Assay Kit detection reagent was prepared according to kit instructions and 4 μL per well of the antibody cocktail was added to a 384-well white low volume non-binding coated plate (Corning). Sixteen μL of serum from the centrifuged blood plate was transferred to the detection plate containing the TR-FRET antibody cocktail. The plate was centrifuged briefly, then covered and incubated 16 hours at room temperature. The plate was then read on an EnVision 2105 multilabel reader (PerkinElmer) with settings for TR-FRET Ratio=10,000×(fluorescence intensity 665 nm/fluorescence intensity 615 nm).

[2] = biological target: T1, STAT6 (Homo sapiens, UniProt P42226); assay: STAT6 Reporter Luciferase Assay (IL-13 stimulated HaCaT keratinocyte NanoLuc reporter cells); assay type: cell-based; conditions: read-out: Reporter EC50
T1 construct: stably transfected HaCaT keratinocyte cell line, which expresses NanoLuc luciferase reporter gene under the transcriptional control of the STAT6 responsive promoter; endogenous in cells; host or cells: HaCaT keratinocyte reporter cell line (stably transfected with a NanoLuc reporter)
T1 sequence (P42226 1-847): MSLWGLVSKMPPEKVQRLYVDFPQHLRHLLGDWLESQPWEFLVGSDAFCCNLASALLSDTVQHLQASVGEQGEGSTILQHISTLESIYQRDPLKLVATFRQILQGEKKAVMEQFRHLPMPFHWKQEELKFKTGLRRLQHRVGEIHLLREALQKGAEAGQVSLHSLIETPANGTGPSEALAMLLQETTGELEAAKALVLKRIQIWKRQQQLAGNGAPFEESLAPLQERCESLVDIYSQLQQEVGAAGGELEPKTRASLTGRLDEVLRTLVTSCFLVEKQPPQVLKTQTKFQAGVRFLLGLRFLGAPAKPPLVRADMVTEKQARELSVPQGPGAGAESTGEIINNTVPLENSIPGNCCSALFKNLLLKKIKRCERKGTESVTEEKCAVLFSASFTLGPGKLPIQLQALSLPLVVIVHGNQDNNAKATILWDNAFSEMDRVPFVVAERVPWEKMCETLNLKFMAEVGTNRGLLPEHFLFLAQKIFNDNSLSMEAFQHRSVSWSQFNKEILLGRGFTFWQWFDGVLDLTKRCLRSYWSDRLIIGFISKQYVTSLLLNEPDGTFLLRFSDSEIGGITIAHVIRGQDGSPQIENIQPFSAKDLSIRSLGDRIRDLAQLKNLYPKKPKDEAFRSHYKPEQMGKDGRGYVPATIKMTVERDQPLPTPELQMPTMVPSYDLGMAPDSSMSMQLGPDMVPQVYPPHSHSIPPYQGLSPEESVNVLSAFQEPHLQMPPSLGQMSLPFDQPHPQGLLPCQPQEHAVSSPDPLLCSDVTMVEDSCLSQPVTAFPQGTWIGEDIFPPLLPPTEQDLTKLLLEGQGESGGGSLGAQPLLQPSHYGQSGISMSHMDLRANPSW
Outline: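 Cells were plated overnight, washed, exposed to compound for two hours, stimulated with IL-13 (0.12 nM final) for four hours at 37 °C, and then lysed with Nano-Glo substrate for 15 min before luminescence reading.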

[3] = inhibition of CCL17 secretion in human whole blood, 10 ng/mL IL13, 48 hours
[4] = STAT6 NanoLuc luciferase reporter, IL-13 stimulated HaCaT keratinocyte cells
[5] = human whole blood, IL-13 stimulated
[6] = IL-13 stimulated HaCaT STAT6 NanoLuc reporter cells

Row | Structure (SMILES) | IC50 [1, 3] | EC50 [2, 4] | IC50 [1, 5] | EC50 [2, 6]
1 | CC(C)n1nc(C(=O)NCc2ccc(NC(=O)N3CCCC3CO)cc2)c2c1CCN(c1ccc(C(=O)N(C)C)cn1)C2 (racemic) [Example 174, rac-(R)-5-(5-(dimethylcarbamoyl)pyridin-2-yl)-N-(4-(2-(hydroxymethyl)pyrrolidine-1-carboxamido)benzyl)-1-isopropyl-4,5,6,7-tetrahydro-1H-pyrazolo[4,3-c]pyridine-3-carboxamide] | 212 nM | 40 nM |  | 
2 | CCc1nc(C(=O)NCc2ccc(NC(=O)N(C)C)cc2)c2n1C(C)CN(c1ccc(C(=O)N(C)C)cn1)C2 (racemic) [Example 205, rac-(R)-7-(5-(dimethylcarbamoyl)pyridin-2-yl)-N-(4-(3,3-dimethylureido)benzyl)-3-ethyl-5-methyl-5,6,7,8-tetrahydroimidazo[1,5-a]pyrazine-1-carboxamide] |  |  | 19 nM | 5 nM
3 | CCC1CN(c2ccc(C(=O)N(C)C)cn2)Cc2c(C(=O)NCc3ccc(NC(=O)N(C)C)cc3)nn(C(C)C)c21 (racemic) [Example 246, rac-(R)-5-(5-(dimethylcarbamoyl)pyridin-2-yl)-N-(4-(3,3-dimethylureido)benzyl)-7-ethyl-1-isopropyl-4,5,6,7-tetrahydro-1H-pyrazolo[4,3-c]pyridine-3-carboxamide] |  |  | 10 nM | 1 nM
4 | CCC1Cc2c(c(C(=O)NCc3ccc(NC(=O)N(C)C)cc3)nn2C(C)C)CN1c1ccc(C(=O)N(C)C)cn1 (racemic) [Example 249, rac-(R)-5-(5-(dimethylcarbamoyl)pyridin-2-yl)-N-(4-(3,3-dimethylureido)benzyl)-6-ethyl-1-isopropyl-4,5,6,7-tetrahydro-1H-pyrazolo[4,3-c]pyridine-3-carboxamide] |  |  | 31 nM | 6 nM
5 | CCC1Cc2c(c(C(=O)NCc3ccc(NC(=O)N(C)C)cc3)nn2C)CN1c1ccc(C(=O)N(C)C)cn1 (racemic) [Example 260, rac-(R)-5-(5-(dimethylcarbamoyl)pyridin-2-yl)-N-(4-(3,3-dimethylureido)benzyl)-6-ethyl-1-methyl-4,5,6,7-tetrahydro-1H-pyrazolo[4,3-c]pyridine-3-carboxamide] |  |  | 64 nM | 10 nM
6 | CC(C)C1CN(c2ccc(C(=O)N(C)C)cn2)Cc2c(C(=O)NCc3ccc(NC(=O)N(C)C)cc3)nn(C)c21 (racemic) [Example 265, rac-(R)-5-(5-(dimethylcarbamoyl)pyridin-2-yl)-N-(4-(3,3-dimethylureido)benzyl)-7-isopropyl-1-methyl-4,5,6,7-tetrahydro-1H-pyrazolo[4,3-c]pyridine-3-carboxamide] |  |  | 37 nM | 5 nM
7 | CCn1nc(C(=O)NCc2ccc(NC(=O)N(C)C)cc2)c2c1C(C(F)(F)F)CN(c1ccc(C(=O)N(C)C)cn1)C2 (racemic) [Example 282, rac-(R)-5-(5-(dimethylcarbamoyl)pyridin-2-yl)-N-(4-(3,3-dimethylureido)benzyl)-1-ethyl-7-(trifluoromethyl)-4,5,6,7-tetrahydro-1H-pyrazolo[4,3-c]pyridine-3-carboxamide] |  |  | 9 nM | 1 nM
8 | CC(C)n1nc(C(=O)NCc2ccc(NC(=O)N(C)C)cc2)c2c1CCN(c1ccc(C3CCCO3)cn1)C2 (racemic) [Example 322, rac-(R)—N-(4-(3,3-Dimethylureido)benzyl)-1-isopropyl-5-(5-(tetrahydrofuran-2-yl)pyridin-2-yl)-4,5,6,7-tetrahydro-1H-pyrazolo[4,3-c]pyridine-3-carboxamide] |  |  | 1350 nM | 77 nM
9 | CC(C)n1nc(C(=O)NCc2ccc(NC(=O)N(C)C)cc2)c2c1CCN(c1ccc(C3CCCCO3)cn1)C2 (racemic) [Example 339, rac-(R)-N-(4-(3,3-dimethylureido)benzyl)-1-isopropyl-5-(5-(tetrahydro-2H-pyran-2-yl)pyridin-2-yl)-4,5,6,7-tetrahydro-1H-pyrazolo[4,3-c]pyridine-3-carboxamide] |  |  | > 23100 nM | 6550 nM
10 | CC(C)n1nc(C(=O)NCc2ccc(NC(=O)N(C)C)cc2)c2c1CCN(c1ccc(C3CCOC3)cn1)C2 (racemic) [Example 345, rac-(R)-N-(4-(3,3-dimethylureido)benzyl)-1-isopropyl-5-(5-(tetrahydrofuran-3-yl)pyridin-2-yl)-4,5,6,7-tetrahydro-1H-pyrazolo[4,3-c]pyridine-3-carboxamide] |  |  | > 30000 nM | > 2630 nM

The remaining lines, values ahead:

Row | IC50 [1, 3] | EC50 [2, 4] | IC50 [1, 5] | EC50 [2, 6] | Structure (SMILES)
11 | 45 nM | 13 nM |  |  | CC(C)n1nc(C(=O)NCc2ccc(NC(=O)N3CCC4(CNCCO4)C3)cc2)c2c1CCN(c1ccc(C(=O)N(C)C)cn1)C2 (racemic) [Example 164, rac-(R)-N-(4-((5-(5-(dimethylcarbamoyl)pyridin-2-yl)-1-isopropyl-4,5,6,7-tetrahydro-1H-pyrazolo[4,3-c]pyridine-3-carboxamido)methyl)phenyl)-6-oxa-2,9-diazaspiro[4.5]decane-2-carboxamide]
12 | 57 nM | 5 nM |  |  | CO[C@@H]1CN(C(=O)Nc2ccc(CNC(=O)c3nn(C(C)C)c4c3CN(c3ccc(C(=O)N(C)C)cn3)CC4)cc2)C[C@H]1F (racemic) [Example 171, rac-5-(5-(dimethylcarbamoyl)pyridin-2-yl)-N-(4-((3R,4R)-3-fluoro-4-methoxypyrrolidine-1-carboxamido)benzyl)-1-isopropyl-4,5,6,7-tetrahydro-1H-pyrazolo[4,3-c]pyridine-3-carboxamide]
13 | 51 nM | 12 nM |  |  | CC(C)n1nc(C(=O)NCc2ccc(NC(=O)N(C)CC3COCCO3)cc2)c2c1CCN(c1ccc(C(=O)N(C)C)cn1)C2 (racemic) [Example 176, rac-(R)-N-(4-(3-((1,4-dioxan-2-yl)methyl)-3-methylureido)benzyl)-5-(5-(dimethylcarbamoyl)pyridin-2-yl)-1-isopropyl-4,5,6,7-tetrahydro-1H-pyrazolo[4,3-c]pyridine-3-carboxamide]
14 |  |  | 48 nM | 3 nM | CC(C)n1nc(C(=O)NCc2ccc(NC(=O)N(C)C)cc2)c2c1CC(C(F)(F)F)N(c1ccc(C(=O)N(C)C)cn1)C2 (racemic) [Example 255, rac-(R)-5-(5-(dimethylcarbamoyl)pyridin-2-yl)-N-(4-(3,3-dimethylureido)benzyl)-1-isopropyl-6-(trifluoromethyl)-4,5,6,7-tetrahydro-1H-pyrazolo[4,3-c]pyridine-3-carboxamide]
15 |  |  | 6850 nM | 1070 nM | CCn1nc2c(c1C(=O)NCc1ccc(NC(=O)N(C)C)cc1)CN(c1ccc(C(=O)N(C)C)cn1)[C@H](C)[C@@H]2C (racemic) [Example 314, rac-(6R,7S)-5-(5-(dimethylcarbamoyl)pyridin-2-yl)-N-(4-(3,3-dimethylureido)benzyl)-2-ethyl-6,7-dimethyl-4,5,6,7-tetrahydro-2H-pyrazolo[4,3-c]pyridine-3-carboxamide]
16 |  |  | 22 nM | 3 nM | CC1CN(c2ccc(C(=O)N(C)C)cn2)Cc2c(C(=O)NCc3ccc(NC(=O)N(C)C)cc3)nn(C3COC3)c21 (racemic) [Example 321, rac-(R)-5-(5-(dimethylcarbamoyl)pyridin-2-yl)-N-(4-(3,3-dimethylureido)benzyl)-7-methyl-1-(oxetan-3-yl)-4,5,6,7-tetrahydro-1H-pyrazolo[4,3-c]pyridine-3-carboxamide]
